Experimental findings from patent US20090311217A1, “3-SUBSTITUTED-1H-INDOLE COMPOUNDS, THEIR USE AS MTOR KINASE AND PI3 KINASE INHIBITORS, AND THEIR SYNTHESES” (priority 2008, published 2009) are described below.

A value given as a limit tells only on which side of the number the result lay.

Holding throughout (format): biochemical
In one assay the target is PI3K-alpha (Homo sapiens, UniProt P42336). The assay can be described thus: PI3K-alpha fluorescence polarization assay. As to conditions: read-out: PI3Kα Avg. IC50. Background: In fluorescence polarisation assays a small probe gives low polarisation when free and higher when bound to something large.
PI3K-alpha, sequence (P42336 whole entry, species assumed): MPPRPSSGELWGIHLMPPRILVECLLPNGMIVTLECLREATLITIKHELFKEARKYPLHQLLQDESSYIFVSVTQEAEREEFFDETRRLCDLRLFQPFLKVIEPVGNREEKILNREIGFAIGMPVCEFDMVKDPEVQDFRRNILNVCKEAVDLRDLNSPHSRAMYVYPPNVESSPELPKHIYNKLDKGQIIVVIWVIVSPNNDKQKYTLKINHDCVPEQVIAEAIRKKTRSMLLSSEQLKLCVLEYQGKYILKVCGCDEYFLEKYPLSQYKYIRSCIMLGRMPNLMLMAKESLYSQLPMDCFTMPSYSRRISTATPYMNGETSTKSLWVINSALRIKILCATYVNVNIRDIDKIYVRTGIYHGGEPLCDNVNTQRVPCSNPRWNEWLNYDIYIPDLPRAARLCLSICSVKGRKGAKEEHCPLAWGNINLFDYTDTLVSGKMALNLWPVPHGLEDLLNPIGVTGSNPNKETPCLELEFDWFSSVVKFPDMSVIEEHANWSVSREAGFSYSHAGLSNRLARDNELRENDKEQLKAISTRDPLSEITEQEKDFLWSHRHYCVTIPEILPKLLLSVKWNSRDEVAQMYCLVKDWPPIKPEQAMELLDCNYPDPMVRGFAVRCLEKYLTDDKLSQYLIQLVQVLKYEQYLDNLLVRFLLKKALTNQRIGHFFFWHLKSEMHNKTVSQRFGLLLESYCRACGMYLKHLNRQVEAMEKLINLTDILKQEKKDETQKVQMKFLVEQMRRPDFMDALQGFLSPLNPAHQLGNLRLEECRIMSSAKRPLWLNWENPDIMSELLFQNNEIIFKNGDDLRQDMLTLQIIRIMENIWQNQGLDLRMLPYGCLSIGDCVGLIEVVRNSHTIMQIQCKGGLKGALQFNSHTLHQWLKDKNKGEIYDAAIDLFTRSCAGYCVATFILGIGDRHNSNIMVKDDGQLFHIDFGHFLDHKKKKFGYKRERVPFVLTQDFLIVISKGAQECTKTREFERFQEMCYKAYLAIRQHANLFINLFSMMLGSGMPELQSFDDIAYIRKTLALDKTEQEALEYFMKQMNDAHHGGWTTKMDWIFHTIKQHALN
PI3K-alpha, sequence (P27986 whole entry partner, species assumed): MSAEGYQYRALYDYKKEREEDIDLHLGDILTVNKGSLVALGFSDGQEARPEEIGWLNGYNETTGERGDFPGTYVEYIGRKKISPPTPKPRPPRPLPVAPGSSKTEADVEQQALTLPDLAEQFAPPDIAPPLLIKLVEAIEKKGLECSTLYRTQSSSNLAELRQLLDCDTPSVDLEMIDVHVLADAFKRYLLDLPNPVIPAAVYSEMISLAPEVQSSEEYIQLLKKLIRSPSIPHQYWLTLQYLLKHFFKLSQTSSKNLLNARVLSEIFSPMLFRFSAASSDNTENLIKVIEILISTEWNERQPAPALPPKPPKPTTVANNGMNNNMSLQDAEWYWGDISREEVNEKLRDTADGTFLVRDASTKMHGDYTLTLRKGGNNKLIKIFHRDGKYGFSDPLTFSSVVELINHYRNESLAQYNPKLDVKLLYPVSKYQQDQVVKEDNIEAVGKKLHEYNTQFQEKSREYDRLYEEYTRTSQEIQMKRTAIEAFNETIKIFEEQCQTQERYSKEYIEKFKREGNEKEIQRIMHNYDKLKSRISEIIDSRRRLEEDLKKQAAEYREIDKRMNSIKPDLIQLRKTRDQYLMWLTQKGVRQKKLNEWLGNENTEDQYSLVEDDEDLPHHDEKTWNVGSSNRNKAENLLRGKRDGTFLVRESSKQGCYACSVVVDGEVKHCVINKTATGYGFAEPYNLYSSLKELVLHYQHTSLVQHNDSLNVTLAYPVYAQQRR
For another assay, the target named is PI3K-gamma (Homo sapiens, UniProt P48736). Kind of assay: PI3K-gamma fluorescence polarization assay. As to conditions: PI3Kγ Avg. IC50. Put shortly:
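FP displacement read-out: 100 nM GST-GRP1 PH domain plus 5 nM BODIPY-TMR-IP4 added after EDTA stop. Preceding kinase step: 5 ng enzyme, diC8-PI(4,5)P2 2.5 μM, ATP 25 μM, MgCl2 2.5 mM, HEPES 5 mM pH 7, one hour, 25° C.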

The next assay deals with T1, human TOR (Homo sapiens, UniProt P42345).
T1 construct: FLAG
Kind of assay: mTOR enzyme assay (DELFIA, His6-S6K substrate). As to conditions: read-out: mTOR Kinase Avg. IC50.

PI3K-gamma, sequence (P48736 whole entry, species assumed, the tested form may be a part): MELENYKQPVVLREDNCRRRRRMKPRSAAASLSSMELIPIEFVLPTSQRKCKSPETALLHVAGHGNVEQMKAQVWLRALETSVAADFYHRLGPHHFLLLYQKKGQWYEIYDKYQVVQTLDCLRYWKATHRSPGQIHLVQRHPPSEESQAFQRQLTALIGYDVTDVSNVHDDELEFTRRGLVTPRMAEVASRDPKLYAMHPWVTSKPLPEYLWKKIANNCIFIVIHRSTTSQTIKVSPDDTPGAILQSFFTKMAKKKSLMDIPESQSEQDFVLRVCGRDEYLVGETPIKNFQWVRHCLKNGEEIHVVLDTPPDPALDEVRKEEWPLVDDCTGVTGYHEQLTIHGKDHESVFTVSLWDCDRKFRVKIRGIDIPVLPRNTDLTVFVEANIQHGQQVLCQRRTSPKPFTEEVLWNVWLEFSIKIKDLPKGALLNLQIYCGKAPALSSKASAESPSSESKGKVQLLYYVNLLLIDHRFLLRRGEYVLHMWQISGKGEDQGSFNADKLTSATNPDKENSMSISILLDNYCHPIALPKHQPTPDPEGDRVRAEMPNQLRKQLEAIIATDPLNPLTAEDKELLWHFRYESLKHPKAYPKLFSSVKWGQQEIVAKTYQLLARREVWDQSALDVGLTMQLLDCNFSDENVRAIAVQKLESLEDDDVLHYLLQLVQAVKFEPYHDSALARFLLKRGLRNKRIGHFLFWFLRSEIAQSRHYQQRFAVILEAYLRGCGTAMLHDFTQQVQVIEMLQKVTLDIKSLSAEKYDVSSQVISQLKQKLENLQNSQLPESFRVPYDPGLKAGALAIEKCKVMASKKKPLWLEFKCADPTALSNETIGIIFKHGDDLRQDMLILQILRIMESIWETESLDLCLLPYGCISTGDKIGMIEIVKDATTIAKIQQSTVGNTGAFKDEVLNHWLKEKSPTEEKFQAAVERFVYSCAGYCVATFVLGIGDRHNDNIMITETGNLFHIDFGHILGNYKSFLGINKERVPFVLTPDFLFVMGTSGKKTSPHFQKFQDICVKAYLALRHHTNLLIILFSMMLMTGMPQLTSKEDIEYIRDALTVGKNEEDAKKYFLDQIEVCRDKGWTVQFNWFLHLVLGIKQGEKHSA

The IC50 is the point on the concentration scale where inhibition reaches its midpoint. As to `N#CCCCn1c(-c2ccccc2)c(C=C2Oc3cc(O)cc(O)c3C2=O)c2ccccc21` [Example 155, 4-{3-[(4,6-dihydroxy-3-oxo-1-benzofuran-2(3H)-ylidene)methyl]-2-phenyl-1H-indol-1-yl}butanenitrile], the IC50 on PI3K-alpha came to 516 nM; against PI3K-gamma, 5350 nM; at human TOR, 80 nM.

With `Cn1cc(/C=C2\Oc3cc(O)cc(O)c3C2=O)c2c(-c3cccnc3)cccc21` [Example 375, (2Z)-4,6-Dihydroxy-2-[(1-methyl-4-pyridin-3-yl-1H-indol-3-yl)methylene]-1-benzofuran-3(2H)-one], the IC50 was determined as 2810 nM at PI3K-alpha, 9500 nM against PI3K-gamma and 28 nM at human TOR.

As for `CN1CCN(CCn2cc(/C=C3\Oc4cc(O)cc(O)c4C3=O)c3c(-c4ccc(C(N)=O)cc4)cccc32)CC1` [Example 425, 4-{3-[(Z)-(4,6-Dihydroxy-3-oxo-1-benzofuran-2(3H)-ylidene)methyl]-1-[2-(4-methylpiperazin-1-yl)ethyl]-1H-indol-4-yl}benzamide], the half-maximal inhibitory concentration (IC50) at PI3K-alpha was 5040 nM; at PI3K-gamma it was 8660 nM; on human TOR, greater than 20000 nM.

Take `COc1ccc2c(c1)c(/C=C1\Oc3cc(O)cc(C)c3C1=O)c(C)n2CCCN(C)C` [Example 468, (2Z)-2-({1-[3-(Dimethylamino)propyl]-5-methoxy-2-methyl-1H-indol-3-yl}methylene)-6-hydroxy-4-methyl-1-benzofuran-3(2H)-one]: the 50% inhibitory concentration (IC50) was found to be 48.5 nM at PI3K-alpha, 3200 nM against PI3K-gamma and 2200 nM at human TOR.

Take `CNC(=O)Nc1ccc2c(c1)C(=O)/C(=C/c1c(-c3c(C)nn(C)c3C)[nH]c3c(C(F)(F)F)cc(OC)cc13)O2` [Compound 725, 1-[(2Z)-2-{[5-methoxy-7-(trifluoromethyl)-2-(1,3,5-trimethyl-1H-pyrazol-4-yl)-1H-indol-3-yl]methylidene}-3-oxo-2,3-dihydro-1-benzofuran-5-yl]-3-methylurea]: the concentration for half-maximal inhibition (IC50) at PI3K-alpha turned out to be 13 nM; against PI3K-gamma, 74 nM; at human TOR, 530 nM.

As to `COc1ccc2c(c1)c(/C=C1\Oc3cc(NS(C)(=O)=O)ccc3C1=O)cn2CCCN(C)C` [Example 422, N-(2Z)-[2-({1-[3-(Dimethylamino)propyl]-5-methoxy-1H-indol-3-yl}methylene)-3-oxo-2,3-dihydro-1-benzofuran-6-yl]methanesulfonamide], the half-inhibitory concentration (IC50) is 9000 nM on PI3K-alpha, 7640 nM on PI3K-gamma and greater than 20000 nM at human TOR.

Regarding `Cn1cc(/C=C2\Oc3cc(O)cc(O)c3C2=O)c2c(-c3ccc(C#N)nc3)cccc21` [Example 397, 5-{3-[(Z)-(4,6-Dihydroxy-3-oxo-1-benzofuran-2(3H)-ylidene)methyl]-1-methyl-1H-indol-4-yl}pyridine-2-carbonitrile], the values for the IC50 on PI3K-alpha, on PI3K-gamma and on human TOR were 1840 nM, 8530 nM and 20 nM, respectively.

For `COc1ccc2c(c1)c(/C=C1\Oc3cc(O)cc(O)c3C1=O)c(C(=O)N(C)C)n2CCn1ccnc1` [Example 314, 3-[(Z)-(4,6-Dihydroxy-3-oxo-1-benzofuran-2(3H)-ylidene)methyl]-1-[2-(1H-imidazol-1-yl)ethyl]-5-methoxy-N,N-dimethyl-1H-indole-2-carboxamide], the IC50 on PI3K-alpha was found to be 29 nM; against PI3K-gamma, 116 nM; on human TOR, 155 nM.

For the compound `COc1cc(F)c2[nH]c(-c3c(C)nn(C)c3C)c(/C=C3\Oc4ccc(NC(=O)Nc5ccc(C(=O)N6CCC(N(C)C)C6)cc5)cc4C3=O)c2c1` (stereo not drawn) [Compound 732, 1-(4-{[3-(dimethylamino)pyrrolidin-1-yl]carbonyl}phenyl)-3-[(2Z)-2-{[7-fluoro-5-methoxy-2-(1,3,5-trimethyl-1H-pyrazol-4-yl)-1H-indol-3-yl]methylidene}-3-oxo-2,3-dihydro-1-benzofuran-5-yl]urea], the figures for the half-maximal inhibitory concentration (IC50) on PI3K-alpha, against PI3K-gamma and at human TOR were 0.33 nM, 1.9 nM and 1 nM, respectively.

On to `CC(C)NC(=O)c1ccc(-c2cccc3c2c(/C=C2\Oc4cc(O)cc(O)c4C2=O)cn3C)cc1` [Example 395, 4-{3-[(Z)-(4,6-dihydroxy-3-oxo-1-benzofuran-2(3H)-ylidene)methyl]-1-methyl-1H-indol-4-yl}-N-isopropylbenzamide], for which the 50% inhibitory concentration (IC50) was determined as 582 nM on PI3K-alpha, 3890 nM against PI3K-gamma and 95 nM on human TOR.

As for `Cn1c(-c2ccsc2)c(C=C2Oc3cc(O)cc(O)c3C2=O)c2ccccc21` [Example 194, 4,6-dihydroxy-2-{[1-methyl-2-(3-thienyl)-1H-indol-3-yl]methylene}-1-benzofuran-3(2H)-one], the IC50 at PI3K-alpha worked out at 837 nM; at PI3K-gamma, 3290 nM; on human TOR, 230 nM.

For `COc1cc(F)c2[nH]c(-c3c(C)nn(C)c3C)c(/C=C3\Oc4ccc(NC(=O)Nc5ccc(C(=O)N6CCN(CCO)CC6)cc5)cc4C3=O)c2c1` [Compound 721, 1-[(2Z)-2-{[7-fluoro-5-methoxy-2-(1,3,5-trimethyl-1H-pyrazol-4-yl)-1H-indol-3-yl]methylidene}-3-oxo-2,3-dihydro-1-benzofuran-5-yl]-3-(4-{[4-(2-hydroxyethyl)piperazin-1-yl]carbonyl}phenyl)urea], the IC50 on PI3K-alpha amounted to 0.6 nM; on PI3K-gamma, 2.25 nM; at human TOR it was 1 nM.

For the compound `CCn1c(C)c(/C=C2\Oc3ccc(NC(=O)Nc4ccc(NCCN(C)C)cc4)cc3C2=O)c2cc(OC)ccc21` [Compound 678, 1-(4-{[2-(dimethylamino)ethyl]amino}phenyl)-3-{(2Z)-2-[(1-ethyl-5-methoxy-2-methyl-1H-indol-3-yl)methylidene]-3-oxo-2,3-dihydro-1-benzofuran-5-yl}urea], the half-maximal inhibitory concentration (IC50) on PI3K-alpha is 3 nM; on PI3K-gamma it was 14.5 nM; on human TOR it was 130 nM.

In the case of `CCn1c(C)c(/C=C2\Oc3ccc(NC(=O)Nc4ccc(OCCCNC)cc4)cc3C2=O)c2cc(OC)ccc21` [Compound 683, 1-{(2Z)-2-[(1-ethyl-5-methoxy-2-methyl-1H-indol-3-yl)methylidene]-3-oxo-2,3-dihydro-1-benzofuran-5-yl}-3-{4-[3-(methylamino)propoxy]phenyl}urea], the IC50 on PI3K-alpha was determined as 1.65 nM; against PI3K-gamma, 11 nM; on human TOR it was 92 nM.

With `COc1ccc2c(c1)c(/C=C1\Oc3cc(O)cc(F)c3C1=O)c(C)n2CCCN(C)C` [Example 465, (2Z)-2-({1-[3-(Dimethylamino)propyl]-5-methoxy-2-methyl-1H-indol-3-yl}methylene)-4-fluoro-6-hydroxy-1-benzofuran-3(2H)-one], the half-maximal inhibitory concentration (IC50) at PI3K-alpha was 29.5 nM; at PI3K-gamma, 475 nM; on human TOR, greater than 20000 nM.

As for `CNC(=O)Nc1ccc2c(c1)C(=O)/C(=C/c1c(-c3ccc(CN(C)C)cc3)[nH]c3ccc(OC)cc13)O2` [Compound 624, 1-{(2Z)-2-[(2-{4-[(dimethylamino)methyl]phenyl}-5-methoxy-1H-indol-3-yl)methylidene]-3-oxo-2,3-dihydro-1-benzofuran-5-yl}-3-methylurea], the values for the IC50 on PI3K-alpha, on PI3K-gamma and at human TOR were 2.1 nM, 23 nM and 57 nM, respectively.

For `Cn1cc(/C=C2\Oc3cc(O)cc(O)c3C2=O)c2c(-c3ccoc3)cccc21` [Example 378, (2Z)-2-{[4-(3-Furyl)-1-methyl-1H-indol-3-yl]methylene}-4,6-dihydroxy-1-benzofuran-3(2H)-one], the half-maximal inhibitory concentration (IC50) on PI3K-alpha was determined as 971 nM; at PI3K-gamma it was 3400 nM; on human TOR it was 107 nM.

Consider `COc1ccc2c(c1)c(/C=C1\Oc3c(ccc(O)c3C)C1=O)c(C)n2CCN1CCN(C)CC1` [Example 347, (2Z)-6-Hydroxy-2-({5-methoxy-2-methyl-1-[2-(4-methylpiperazin-1-yl)ethyl]-1H-indol-3-yl}methylene)-7-methyl-1-benzofuran-3(2H)-one], for which the IC50 at PI3K-alpha is 408 nM; on PI3K-gamma, 8670 nM; at human TOR it was greater than 4000 nM.

As for `CNC(=O)Nc1ccc2c(c1)C(=O)/C(=C/c1c(-c3c(OC)cccc3OC)[nH]c3ccc(OC)cc13)O2` [Compound 637, 1-[(2Z)-2-{[2-(2,6-dimethoxyphenyl)-5-methoxy-1H-indol-3-yl]methylene}-3-oxo-2,3-dihydro-1-benzofuran-5-yl]-3-methylurea], the IC50 on PI3K-alpha amounted to 2.2 nM; against PI3K-gamma, 18.5 nM; at human TOR, 35 nM.

Take `COc1ccc2c(c1)O/C(=C\c1c[nH]c3ccc(OC)cc13)C2=O` [Example 384, (2Z)-6-Methoxy-2-[(5-methoxy-1H-indol-3-yl)methylene]-1-benzofuran-3(2H)-one]: the values for the half-maximal inhibitory concentration (IC50) on PI3K-alpha, against PI3K-gamma and at human TOR were greater than 10000 nM, 2450 nM and greater than 20000 nM, respectively.

With `COc1ccc2[nH]c(C)c(C=C3Oc4c(ccc(O)c4O)C3=O)c2c1` [Example 69, 6,7-dihydroxy-2-[(5-methoxy-2-methyl-1H-indol-3-yl)methylene]-1-benzofuran-3(2H)-one], the IC50 is 399 nM on PI3K-alpha, 3500 nM against PI3K-gamma and greater than 20000 nM on human TOR.

For `COc1ccc2c(c1)c(/C=C1\Oc3ccc(NC(=O)Nc4ccc(N(C)C)cc4)cc3C1=O)c(C)n2CCN1CCN(C)CC1` [Compound 633, 1-[4-(dimethylamino)phenyl]-3-[(2Z)-2-({5-methoxy-2-methyl-1-[2-(4-methylpiperazin-1-yl)ethyl]-1H-indol-3-yl}methylidene)-3-oxo-2,3-dihydro-1-benzofuran-5-yl]urea], the IC50 at PI3K-alpha came to 3.87 nM; on PI3K-gamma, 1910 nM; on human TOR, 225 nM.
